Measurements: patent publication US4673668A, “Aminonaphthacene derivatives” (Sumitomo Pharmaceuticals Company, priority 1982, dated 1987)
“And” between values parts separate entries of the source, which are not always exact repeats. Equal values may be shown once. Where a name gives a salt, the structure may show the parent alone. Read-outs that look alike come from different tables or passages of the source.

What was measured:
[1] = test system: P388 mouse leukemia cells; experiment: Effect against survival time of mouse transplanted with P388 mouse leukemia cells (in vivo test, intraperitoneal administration); set-up: species or system mouse (CDF1); conditions: intraperitoneally, first and fifth days
Description: (2) Effect against survival time of mouse transplanted with P388 mouse leukemia cells (in vivo test, intraperitoneal administration)
(§1) Tumor: P388 mouse leukemia.
(§2) Animals: CDF1 (BALB/C×DBA/2) mouse .male.5 weeks breeding, one group: 6 mice.
(§3) Number of cells transplanted: 10^6 /mouse, intraperitoneal administration.
Dosage: Test compound administered twice, i.e. the first and fifth days, intraperitoneally. Test compound hardly soluble or insoluble in water is applied in a solution or a suspension form by use of Tween 80.
(§4) Evaluation: Increase life span (ILS) is calculated on the basis of median survival times (T) and (C) of treated groups and controls, repsctively: [formula] (3) Effect against survival times of mouse transplanted with P388 mouse leukemia cells (in vivo test; intravenous or per os administration)

[2] = test system: P388 mouse leukemia cells; experiment: Effect against P388 mouse leukemia cell (in vitro test); format: cell-based
Description: (1) Effect against P388 mouse leukemia cell (in vitro test)
P388 leukemia cells have been subcultured in abdominal cavity of DBA/2 mouse. […] A suspension of 5×10^4 cells/ml containing a test compound is prepared and is cultured in a wet atmosphere containing 5% CO2 at 37° C. for 48 hours.
Number of cells before and after culturing is counted by coulter counter. Proliferative ratio is defined as ratio of the increase in cells after proliferation for 48 hours to an increase in cells cultured in a suspension containing no test compound. Inhibition ratio (IR) is defined as follows: […]
1--(proliferative ratio).
In other words, [formula] where C^treated : number of cells after culturing for 48 hours in the presence of a treated compound
C^non : number of cells after culturing for 48 hours in the absence of a test compound
Co : number of cells when culturing is initiated.

[3] = Toxicity test (maximum tolerated dose); conditions: mouse, in vivo; single application; BALB/C mice, ten a group; largest amount where no death is seen
Description: The largest amount where no death of mice is seen is defined as maximum tolerated dose.

[4] = test system: P388 mouse leukemia cells; experiment: Effect against survival times of mouse transplanted with P388 mouse leukemia cells (in vivo test; per os administration); set-up: species or system mouse (CDF1); conditions: po, once, first day
Description: as §1, §2, §3, §4
(§5) Similar to (2), but a test compound administered once, i.e., only the first day, intravenously or orally.

[5] = test system: P388 mouse leukemia cells; experiment: Effect against survival times of mouse transplanted with P388 mouse leukemia cells (in vivo test; intravenous); set-up: species or system mouse (CDF1); conditions: once, first day
Description: as §1, §2, §3, §4, §5

[6] = P388, 1 γ/ml, 48 hours, read-out: Inhibition ratio (IR)
[7] = P388, 10^-1 γ/ml, 48 hours, read-out: Inhibition ratio (IR)
[8] = P388, 10 γ/ml, 48 hours, read-out: Inhibition ratio (IR)
[9] = P388, 48 h, read-out: Inhibition ratio (IR), 1 γ/ml
[10] = P388, 48 h, read-out: Inhibition ratio (IR), 10^-1 γ/ml
[11] = P388, 48 h, read-out: Inhibition ratio (IR), 10 γ/ml

With `CC(=O)[C@]1(N)Cc2c(O)c3c(c(O)c2[C@@H](OC2CCCCO2)C1)C(=O)c1ccccc1C3=O` (single isomer, unassigned) [Example 10-A, 7-0-tetrahydropyranyl-9α-amino-9β-acetyl-7,8,9,10-tetrahydro-6,7α,11-trihydroxy-5,12-naphthacenedione] the “Increase life span (ILS)” value ([1]; 6.25 mg/kg) was 25%, the “Increase life span (ILS)” value ([1]; 12.5 mg/kg) was 77% and the “Increase life span (ILS)” value ([1]; 25 mg/kg) was 286%. It also gave an inhibition at 1 µg/mL [2, 6] of 94.4%, an inhibition at 0.1 µg/mL [2, 7] of 94.6% and an inhibition at 10 µg/mL [2, 8] of 89%.

In the case of `CC(=O)O[C@H]1C[C@H](O[C@H]2C[C@](N)(C(C)=O)Cc3c(O)c4c(c(O)c32)C(=O)c2ccccc2C4=O)OC[C@H]1OC(C)=O` [11 (hydrochloride), d-7α-[(2-deoxy-3,4-di-0-acetyl-β-D-erythro-pentapyranosyl)oxy]-9α-amino-9β-acetyl-7,8,9,10-tetrahydro-6,11-dihydroxy-5,12-naphthacenedione], the MTD [3] is reported as 40 mg/kg, the ILS ([4]; 17.5 mg/kg) is reported as 40% and the ILS ([4]; 35 mg/kg) is reported as 63%. The ILS ([4]; 70 mg/kg) was -42%, the “Toxic Death” value ([4]; 70 mg/kg) was 6/6 and the ILS ([5]; 10 mg/kg) was 35%. The ILS ([5]; 20 mg/kg) was 67%, the ILS ([5]; 40 mg/kg) was -45% and the “Toxic Death” value ([5]; 40 mg/kg) was 6/6. The “Increase life span (ILS)” value ([1]; 6.25 mg/kg) was 37%, the “Increase life span (ILS)” value ([1]; 12.5 mg/kg) was 123% and the “Increase life span (ILS)” value ([1]; 25 mg/kg) was 280%. For the same compound, the inhibition at 1 µg/mL [2, 6] was 97.9%, the inhibition at 0.1 µg/mL [2, 7] was 1.9% and the inhibition at 10 µg/mL [2, 8] was 100%.

With `CC(=O)[C@]1(N)Cc2c(O)c3c(c(O)c2[C@@H](O[C@H]2C[C@H](O)[C@H](O)CO2)C1)C(=O)c1ccccc1C3=O` [12 (hydrochloride), d-7α-[(2-deoxy-β-D-erythro-pentapyranosyl)oxy]-9αamino-9β-acetyl-7,8,9,10-tetrahydro-6,11-dihydroxy-5,12-naphthacenedione] the MTD [3] was 32 mg/kg, the ILS ([4]; 17.5 mg/kg) was 31% and the ILS ([4]; 35 mg/kg) was 50%. The ILS ([4]; 70 mg/kg) was 86%, the ILS ([5]; 10 mg/kg) was 32% and the ILS ([5]; 20 mg/kg) was 60%. The ILS ([5]; 40 mg/kg) was -43%, the “Toxic Death” value ([5]; 40 mg/kg) was 6/6 and the inhibition at 1 µg/mL [2, 9] was 83.8%. It also gave an inhibition at 0.1 µg/mL [2, 10] of 27.5% and an inhibition at 10 µg/mL [2, 11] of 85%.

`CC[C@@]1(O)C[C@H](O[C@H]2C[C@H](N(C)C)[C@H](O[C@H]3C[C@H](O)[C@H](O[C@H]4CCC(=O)[C@H](C)O4)[C@H](C)O3)[C@H](C)O2)c2c(cc3c(c2O)C(=O)c2c(O)cccc2C3=O)[C@H]1C(=O)OC` [ACM-A, AclacinomycinA, reference compound] gave an ILS ([4]; 10.7 mg/kg) of 11%, an ILS ([4]; 21.5 mg/kg) of 25% and an ILS ([4]; 43 mg/kg) of 37%.

`COc1cccc2c1C(=O)c1c(O)c3c(c(O)c1C2=O)C[C@@](O)(C(=O)CO)C[C@@H]3O[C@H]1C[C@H](N)[C@H](O)[C@H](C)O1` [ADR, Adriamycin, reference compound] showed an MTD [3] of 12.5 mg/kg, an ILS ([5]; 3.75 mg/kg) of 21% and an ILS ([5]; 7.5 mg/kg) of 47%. The ILS ([5]; 15 mg/kg) was 83%, the “Increase life span (ILS)” value ([1]; 1 mg/kg, positive control) was 58% and 78% and 57% and the “Increase life span (ILS)” value ([1]; 2 mg/kg, positive control) was 90% and 84%. The “Increase life span (ILS)” value ([1]; 4 mg/kg, positive control) was 133%, the inhibition at 1 µg/mL [2, 9] was 85.9% and the inhibition at 0.1 µg/mL [2, 10] was 85%. The inhibition at 0.01 µg/mL ([2]; P388, 48 h, read-out: Inhibition ratio (IR), 10^-2 γ/ml) was 69.2% and the inhibition at 10 µg/mL [2, 11] was 90.6%.

With `CC(=O)O[C@@H]1[C@H](C)O[C@@H](O[C@H]2C[C@](N)(C(C)=O)Cc3c(O)c4c(c(O)c32)C(=O)c2ccccc2C4=O)C[C@@H]1OC(C)=O` [Example 1, d-7α-[(3,4-di-0-acetyl-2,6-dideoxy-α-L-lyxo-hexopyranosyl)oxy]-9α-amino-9β-acetyl-7,8,9,10-tetrahydro-6,11-dihydroxy-5,12-naphthacenedione] the “Increase life span (ILS)” value ([1]; 6.25 mg/kg) was 42%, the “Increase life span (ILS)” value ([1]; 12.5 mg/kg) was 86% and the “Increase life span (ILS)” value ([1]; 25 mg/kg) was 152%. It also gave an inhibition at 1 µg/mL [2, 6] of 84.1%, an inhibition at 0.1 µg/mL [2, 7] of 32.4% and an inhibition at 10 µg/mL [2, 8] of 82.7%.

In the case of `CC(=O)[C@]1(N)Cc2c(O)c3c(c(O)c2[C@@H](O[C@H]2C[C@H](O)[C@H](O)[C@H](C)O2)C1)C(=O)c1ccccc1C3=O` [Example 2, d-7α-[(2,6-dideoxy-α-L-lyxo-lexopyranosyl)oxy]-9α-amino-9β-acetyl-7,8,9,10-tetrahydro-6,11-dihydroxy-5,12-naphthacenedione], the “Increase life span (ILS)” value ([1]; 6.25 mg/kg) is reported as 135%, the inhibition at 1 µg/mL [2, 6] is reported as 84.5% and the inhibition at 0.1 µg/mL [2, 7] is reported as 44.1%. The inhibition at 10 µg/mL [2, 8] was 89.9%.

Work on `CC(=O)[C@]1(N)Cc2c(O)c3c(c(O)c2[C@@H](O[C@H]2C[C@H](N)[C@H](O)[C@H](C)O2)C1)C(=O)c1c(O)cccc1C3=O` [Example 25 (dihydrochloride), d-7α-[(2,3,6-trideoxy-3-amino-α-L-lyxo-hexopyranosyl)oxy]-9α-amino-9β-acetyl-4,6,11-trihydroxy-7,8,9,10-tetrahydro-5,12-naphthacenedione] yielded an inhibition at 1 µg/mL [2, 6] of 95.7%, an inhibition at 0.1 µg/mL [2, 7] of 89% and an inhibition at 10 µg/mL [2, 8] of 99.4%.

With `CC(O)[C@]1(N)Cc2c(O)c3c(c(O)c2[C@@H](OC2CCCCO2)C1)C(=O)c1ccccc1C3=O` (stereo partly drawn) [Example 29, 7-0-tetrahydropyranyl-9α-amino-9β-(1-hydroxyethyl)-7,8,9,10-tetrahydro-6,7α,11-trihydroxy-5,12-naphthacenedione] the “Increase life span (ILS)” value ([1]; 3.13 mg/kg) was 66%, the “Increase life span (ILS)” value ([1]; 6.25 mg/kg) was 126% and the inhibition at 1 µg/mL [2, 6] was 92.9%. It also gave an inhibition at 0.1 µg/mL [2, 7] of 93.5%, an inhibition at 0.01 µg/mL ([2]; P388, 10^-2 γ/ml, 48 hours, read-out: Inhibition ratio (IR)) of 40.1% and an inhibition at 10 µg/mL [2, 8] of 94.1%.
